A short description of series [1]: Photostabilization of Avobenzone and OMC, solution on quartz (Experiment 6-2). The series is classed as physicochemical. Conditions: Avobenzone 3%, OMC 7.5%. The text has this: Experiment 6-2 compares the compounds at 3% to photostabilize Avobenzone at 3% and OMC at 7.5%. The results are shown in Table 2 and graphically in FIG. 20.
Series [2] can be described thus: Voltammetry, redox potential with respect to Ag/AgCl reference electrode. Conditions: vs Ag/AgCl. The series is classed as physicochemical.
Description: For these experiments, dimethylsulfoxide (DMSO) and tetrabutylammonium perchlorate (TBAP) were obtained from Sigma Aldrich and used as received. […] Platinum wires (BASi MW-1032) of diameter 0.5 mm were employed for both the working electrode (WE) and counter electrode (CE). A dry-solvent tolerant Ag/AgCl reference electrode (RE) was obtained from eDAQ (Model ET072). The WE and CE were cleaned prior to each by first rinsing in acetone, then DI, followed by soaking in ˜50% aqueous H2SO4 for 10-20 minutes and then a final DI rinse. The RE electrode was cleaned prior to each use by an acetone rinse followed by DI rinse. Each sample solution was prepared in a fresh glass vial which had been rinsed with DI then acetone and allowed to dry Immediately after preparing each solution, it was purged with pure N2 gas for 15-20 minutes with the electrodes in place. Voltammetry data was collected shortly afterwards with an EG&G PAR 263 A Potentiostant/Galvanostat operated using a Labview-based control program. Scans were performed at various potential ranges between +2.0V and −2.0V (vs Ag/AgCl); all scan rates were constant at 200 mV/s.
Series [3] is described as follows: Protoporphyrin IX triplet state quenching by laser flash photolysis. The series is classed as physicochemical. Particulars: PPIX, acetonitrile solutions at room temperature. The procedure:
To investigate if triplet states of protoporphyrin IX are quenched by the two compounds, laser flash photolysis experiments were performed. In these experiments, a deoxygenated acetonitrile solution of protoporphyrin IX is excited with short laser pulses from a Nd-YAG laser (355 nm, 5 ns pulse width). Difference absorption kinetic traces were recorded at different observation wavelengths (300 to 800 nm) and from these a transient absorption spectrum was constructed (FIG. 5A). […] In addition, two bands are observed at 320 and 440 nm, which are assigned to the triplet-triplet absorption of protoporphyrin IX. […] Triplet absorption kinetics at 440 nm may be utilized to obtain triplet quenching rate constants by the stabilizers. Triplet decay traces at 440 nm were recorded in the presence of different amounts of the alkoxy […], Formulas […])(1), and the mixture of II(b)(1) and II(c)(1). The decay traces were fitted to a first-order kinetics. The plot of these pseudo-first-order rate constants (inverse decay lifetime) vs. the concentration of the two compounds gives directly the bimolecular triplet quenching rate constant from the slope (FIG. 6). The biomolecular quenching rate constants for singlet excited state (kq^S) and triplet excited state (kq^T) quenching of PPIX by stabilizers in acetonitrile solutions at room temperature is shown in Table 4, as well and the Stern-Volmer rate constants.

Series [4] can be described thus: Stern-Volmer analysis of singlet oxygen suppression. The series is classed as physicochemical. From the text:
The singlet oxygen phosphorescence intensity in the absence of the compound of Formulas I(a)(1), II(a)(1), II(d)(1), II(e)(1), or a mixture of II(b)(1) and II(c)(1) (I0) divided by the singlet oxygen phosphorescence intensity in the presence of compounds of Formula I/II(I) was plotted against the Formula I/II concentration (FIG. 16). From the slope of these plots (Stern-Volmer constant) and the lifetime of the quenched excited state, the bimolecular quenching constant can be extracted. If the excited state, which is quenched by the compound of Formula I(a)(1) (which causes a reduction in singlet oxygen production) is the singlet excited state of protoporphyrin IX then, using the previously measured fluorescence lifetime in acetonitrile (if =12.7 ns) a quenching rate constant of 2.4×10^9 M^−1 s^−1 is estimated. […] The rate constant derived from singlet oxygen phosphorescence quenching (FIG. 16) is only half of the more directly derived rate constant from fluorescence quenching, which could be caused by the difference in solvents or by some contribution of protoporphyrin triplet quenching by the compound of Formula I(a)(1). […] This rate constant is 5 times higher than the directly measured rate constant by laser flash photolysis (6.1×10^6 M^−1 s^−1). […] It must be noted that protoporphyrin IX triplet lifetime of ˜1 μs in air saturated DMSO was only estimated based on the directly measured triplet lifetime in air saturated acetonitrile and considering the different oxygen concentration in DMSO compared to acetonitrile. If necessary, the protoporphyrin IX triplet lifetime in air saturated DMSO can easily be measured by laser flash photolysis. The complex reaction mechanism is summarized in Scheme 1 (FIG. 17).
The biomolecular quenching rate constants for singlet excited state (kq^S) and triplet excited state (kq^T) quenching of PPIX by stabilizers in acetonitrile solutions at room temperature is shown in Table 4, as well and the Stern-Volmer rate constants.
Stern-Volmer constants are in direct correlation with the singlet oxygen suppression efficiency. Table 4 (above) summarizes the Stern-Volmer constants and PPIX singlet and triplet state quenching rate constants. Three different ranges of Stern-Volmer constants were observed. […] For compounds I(a)(1), II(d)(1), and the mixture of II(b)(1) and II(c)(1), Stern-Volmer constants of about 30 M^−1 were observed. For these three stabilizers, high PPIX singlet quenching rate constants (about 5×10^9 M^−1 s^−1) but low triplet quenching rate constants (<10^9 M^−1 s^−1) were observed. Here, the singlet oxygen suppression is probably dominated by PPIX singlet excited state quenching by these stabilizers. […] Because of the very high PPIX triplet quenching rate constant by compound II(a)(1) (3.2×10^9 M^−1 s^−1), the singlet oxygen suppression is probably dominated by triplet quenching. […] These kinetic parameters may include the MePPIX triplet and singlet lifetimes in air saturated and oxygen free CDCl3 and the bimolecular quenching constant by oxygen.

Series [5] can be described thus: Protoporphyrin IX fluorescence lifetime quenching (singlet excited state). The series is classed as physicochemical. Particulars: PPIX; for bimolecular quenching rate constant for singlet excited state quenching (in words): acetonitrile; for Singlet Quenching Rate Constant: acetonitrile solutions at room temperature. The procedure:
Fluorescence lifetime measurements are a convenient way to measure singlet state quenching by stabilizers. Protoporphyrin IX decay traces were recorded in the absence and presence of compound I(a)(1) and alkoxy […] (FIG. 3). […] The collected data shown in FIG. 3 were used to determine the bimolecular quenching rate constant for singlet excited state quenching by the compounds. The quenching rate constant may be directly extracted from the slope of the plot of the inverse fluorescence lifetime vs. the concentration of the two compounds (FIG. 4). […] The biomolecular quenching rate constants for singlet excited state (kq^S) and triplet excited state (kq^T) quenching of PPIX by stabilizers in acetonitrile solutions at room temperature is shown in Table 4, as well and the Stern-Volmer rate constants.

In series [6] the test system is visible light-induced free radicals in pig skin. Put plainly: Visible light-induced free radicals in ALA-treated pig skin by Electron Spin Resonance. Particulars: 1% reference. Here is the method: A conjugated fused tricycle compound according to Formula II(a)(1) reduced visible light-induced free radicals in skin by up to 89% and did so in a dose-dependent manner (FIG. 21). The study was conducted using pig skin, which is recognized for its similarity to human skin. Topical application of aminolevulinic acid (ALA) induced the skin to over-produce the endogenous photosensitizer Protoporphyrin IX (PPIX). Solutions of Formula II(a)(1) at different concentrations were then topically applied to the ALA treated skin after which it was exposed to bright green light. The resulting free radical content of the skin was then measured by Electron Spin Resonance (ESR). Studies conducted in solution have shown that Formula II(a)(1) suppresses singlet oxygen production by PPIX. […] The mechanisms of action of Formula II(a)(1) and Tocopherol are different: the former prevents free radicals from forming; the latter scavenges free radicals after they appear.

For series [7] the following is noted: reference value; cited from earlier work.
Series [8] is described as follows: UV and visible light absorption spectra of stabilizers. The series is classed as physicochemical. Particulars: acetonitrile. The procedure: UV and visible light absorption spectra were recorded to investigate to what extent each stabilizer itself absorbs UV light. […] Protoporphyrin IX has weak absorption bands above 450 nm, where the two compounds are transparent (FIG. 2). The compound with the oxygen bridge (Formula II(d)(1)) caused a bathocromic shift of the UV absorption of the lowest energy band. The compound with the sulfur bridge (Formula II(e)(1)) shifted the lowest energy band further into the visible region.

The mark [9] stands for this setting: 0.01 M in 0.1 M TBAP in DMSO, 200 mV/s.

`CCCCC(CC)COC(=O)C(C#N)=C1c2ccccc2Sc2ccccc21` (centres unmarked) [Formula Y-1-15, Ethylhexyl cyano thioxanthenylidene acetate]: the “% UVA” value in series [1] (stabilizer level 1.0) turned out to be 85.5%; in series [1] (stabilizer level 2.0), 91.0%; in series [1] (stabilizer level 4.0), 90.8%. Also, the “% UVB” value in series [1] (stabilizer level 1.0) turned out to be 90.0%; in series [1] (stabilizer level 2.0) it was 93.8%; in series [1] (stabilizer level 4.0), 93.9%.
Regarding “Ethylhexyl dimethyl 2,2′-anthracene-9,10-diylidenebis(cyanoacetate) [Formula Y-1-22]”, the “% UVA” value came out at 82.1% in series [1] (stabilizer level 1.0), 87.8% in series [1] (stabilizer level 2.0) and 91.0% in series [1] (stabilizer level 4.0). For the same molecule, the figures for the “% UVB” value in series [1] (stabilizer level 1.0), in series [1] (stabilizer level 2.0) and in series [1] (stabilizer level 4.0) were 87.8%, 92.1% and 94.7%, respectively.
As to `COC(=O)C(C#N)=c1c2ccccc2c(=C(C#N)C(=O)OC)c2ccccc12` [Formula II(b)(1)], in series [2] (setting [9]), the “first (or only) redox couple, oxidation peak” value is “+54 mV” and the “first (or only) redox couple, reduction peak” value was −545 mV. The “first (or only) redox couple, redox potential” value in series [2] (estimated from the peaks) is recorded as −245 mV.
Turning to `COC(=O)C(C#N)=C1c2ccccc2Sc2ccccc21` [Formula II(e)(1)], in series [3], the “Triplet Quenching Rate Constant” value is 0.0012 10^9 M^−1s^−1. Further, in series [2], the “second redox couple, oxidation peak (large)” value is reported as “+434 mV”. Further, in series [2] (setting [9]), the “first (or only) redox couple, oxidation peak” value is on record as −782 mV; the “first (or only) redox couple, reduction peak” value is recorded as −969 mV; the “second redox couple, reduction peak” value is reported as −1409 mV. Further, in series [2] (estimated from the peaks), the “first (or only) redox couple, redox potential” value is −875 mV and the “second redox couple, redox potential” value is recorded as −1347 mV. In series [2] (the small peak where two are given), the “second redox couple, oxidation peak” value is given as −1286 mV. For the same molecule, in series [4], the “Stern-Volmer Constant of ^1O2 Suppression” value was 1.2 M⁻¹ and the “singlet oxygen suppression (in words)” value is “only negligible singlet oxygen suppression”. In addition, in series [5], the “bimolecular quenching rate constant for singlet excited state quenching (in words)” value was “high quenching rate constant” and the “Singlet Quenching Rate Constant” value is recorded as 0.65 10^9 M^−1s^−1.
For the molecule `COC(=O)C(C#N)=C1c2ccccc2Oc2ccccc21` [Formula II(d)(1)], the “Triplet Quenching Rate Constant” value in series [3] is recorded as 0.14 10^9 M^−1s^−1. Further, in series [5], the “bimolecular quenching rate constant for singlet excited state quenching (in words)” value is “high quenching rate constant” and the “Singlet Quenching Rate Constant” value was 3.7 10^9 M^−1s^−1.
Consider `CCCCC(CC)COC(=O)C(C#N)=C1c2ccccc2Oc2ccccc21` (centres unmarked) [Formula Y-1-9, Ethylhexyl cyano xanthenylidene acetate], for which the figures for the “% UVA” value in series [1] (stabilizer level 1.0), in series [1] (stabilizer level 2.0) and in series [1] (stabilizer level 4.0) were 88.6%, 88.6% and 94.5%, respectively. Further, the “% UVB” value came out at 91.8% in series [1] (stabilizer level 1.0), 91.1% in series [1] (stabilizer level 2.0) and 95.3% in series [1] (stabilizer level 4.0).
For the molecule `Cc1c(C)c2c(c(C)c1O)CCC(C)(CCCC(C)CCCC(C)CCCC(C)C)O2` (centres unmarked) [Tocopherol, reference compound], in series [6] (ALA-treated pig skin), the “Free Radicals (a.u.)” value is 1955 ± 366 a.u. Further, in series [6] (relative to 0 mM control), the “Free Radicals (%)” value stood at 78%.
As for `O=C(c1ccccc1)c1ccccc1` [benzophenone], the “quantum yield of singlet oxygen generation (reference)” value in series [7] is 0.35.
With `CCCCC(CC)COC(=O)C(C#N)=C(c1ccccc1)c1ccc(OC)cc1` (centres unmarked) [SolaStay S1, ethylhexyl methoxycrylene, reference compound], the results for the “% UVA” value in series [1] (stabilizer level 1.0), in series [1] (stabilizer level 2.0) and in series [1] (stabilizer level 4.0) were 81.3%, 84.2% and 87.3%, respectively. For the same molecule, the entries for the “% UVB” value in series [1] (stabilizer level 1.0), in series [1] (stabilizer level 2.0) and in series [1] (stabilizer level 4.0) were 87.8%, 90.1% and 91.5%, respectively. In series [8], this molecule gave a λmax of 336 nm. The “extinction coefficient (molar absorptivity)” value in series [8] (at λmax) is recorded as 13,200 M −1 cm −1.

Values taken from patent US9611246B2, “Compositions, apparatus, systems, and methods for resolving electronic excited states” (HALLSTAR INNOVATIONS CORP., priority 2012, dated 2017).
